What all share (test): growth of human tumour cells (NCI), 48 h
Assay [1] deals with 786-0 renal.
In assay [2] the test system is CAKI-1 renal.
Assay [3] has as its system DU-145 prostate.
In assay [4] the test system is EKVX NSCLC.
Assay [5] deals with K-562 leukemia.
Assay [6] deals with NCI-H226 lung.
The subject of assay [7] is NCI-H460 lung.
Assay [8] relates to PC-3 prostate.
Assay [9] deals with T-47D breast.
In assay [10] the test system is U251 CNS.

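Tested at 5 concentrations; 48 h exposure; 96-well plates; endpoints linearly interpolated, else capped at highest concentration. TGI marks complete inhibition of growth.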

Take `CC(=O)CC(O)(C(F)(F)Cl)C(F)(Cl)Cl` (stereo unspecified): the TGI in assay [1], in assay [2], in [3], in assay [4], in assay [5] and in [6] was over 10 µM in each case. Besides, the TGI in assay [7], in [8], in assay [9] and in assay [10] was over 10 µM in each case.

In the case of `O=C(O)c1ccccc1Sc1ccc(C=C2NC(=S)N(c3ccccc3)C2=O)s1`, the TGI in assay [1] was 35.8 µM; in [2], over 100 µM; in [3] it was over 100 µM; in [4], over 100 µM; in assay [5], over 100 µM; in assay [6] it was over 100 µM. Moreover, the TGI in [7], in [8], in assay [9] and in assay [10] was over 100 µM in each case.

As for `Cc1csc(NCc2ccc(Cl)cc2)n1`, the TGI in assay [1], in [2], in [3], in assay [4], in assay [5] and in [6] was over 100 µM in each case. Moreover, the TGI in assay [8], in assay [9] and in assay [10] was over 100 µM in each case.

On to `O=C(NCC(O)COc1ccccc1)c1ccccc1O` (stereo unspecified), for which the TGI in assay [1], in assay [2], in assay [3], in assay [4], in [5] and in assay [6] was over 100 µM each time. The TGI in assay [8], in assay [9] and in assay [10] was over 100 µM each time.

Consider `CNC(=O)OC1/C(C)=C\C(C)C(O)C(OC)CC(C)CC2=C(OC)C(=O)C=C(C2=O)N(C)C(=O)/C(C)=C/C=C\C1OC` (stereo unspecified), for which the TGI in [1] is 18.2 µM; in assay [2] it was 20.8 µM; in assay [3], over 41.8 µM; in assay [4] it was 24.7 µM; in assay [5], 12.5 µM; in [6] it was 36.7 µM. Also, the TGI stood at 39.7 µM in assay [7], 26 µM in assay [8], 6.14 µM in [9] and 31.4 µM in assay [10].

`CCCNC(=O)c1cc(OC)c(OC)cc1NC(=O)C12CC3CC(CC(C3)C1)C2`: the TGI in assay [1] was 30.6 µM; in [2], 41.3 µM; in assay [3] it was 35.5 µM; in [4] it was 32.3 µM; in assay [5] it was over 100 µM; in [6], 55 µM. For the same compound, the TGI came to 43.1 µM in assay [7], 35.1 µM in assay [8], 40.4 µM in assay [9] and 30.7 µM in assay [10].

Regarding `O=C1OCOC2(CCCC2)C1c1ccccc1` (stereo unspecified), the TGI in assay [1], in assay [2], in assay [3], in assay [4], in [5] and in assay [6] was over 100 µM each time. The TGI in assay [7], in assay [8], in [9] and in assay [10] was over 100 µM in each case.

Turning to `CCn1c(=O)c2nc(SC)sc2n(-c2ccccc2)c1=S`, the TGI in assay [1] was over 100 µM; in assay [3] it was over 100 µM; in assay [4], over 100 µM; in assay [5], 55.1 µM; in [6], over 100 µM; in assay [7] it was over 100 µM. Moreover, the TGI in assay [8], in [9] and in [10] was over 100 µM throughout.

On to `O=[N+]([O-])c1ccc(CSC2=C(c3ccc(Cl)cc3)S/C(=C3\SC(SCc4ccc([N+](=O)[O-])cc4)=C(c4ccc(Cl)cc4)S3)S2)cc1`, for which the TGI in [1], in assay [2], in [3], in assay [4], in assay [5] and in [6] was over 100 µM each time. Moreover, the TGI in [7], in assay [8], in [9] and in assay [10] was over 100 µM throughout.

For the compound `COc1ccc2cc(CNCCCCCCNC(=O)Nc3cccc4ccccc34)ccc2c1`, the TGI in assay [1], in assay [2], in [3], in assay [4], in [5] and in assay [6] was over 100 µM in each case. The TGI in assay [7], in [8], in assay [9] and in [10] was over 100 µM in each case.

As for `COc1cccc(C2c3cc4c(cc3OC(NNS(=O)(=O)c3ccc(C)cc3)C2C)OCO4)c1O` (stereo unspecified), the TGI in assay [1] is over 100 µM; in assay [2] it was over 100 µM; in assay [3], over 100 µM; in assay [4], over 100 µM; in [5], 39.4 µM; in assay [6], over 100 µM. Further, the TGI is 82 µM in assay [7], 65.8 µM in assay [8], over 100 µM in assay [9] and over 100 µM in [10].

With `C#C[C@]1(O)CC[C@H]2[C@@H]3CCC4=C/C(=N/OC(=O)c5cccc6cc7ccccc7nc56)CC[C@@H]4[C@H]3CC[C@@]21CC`, the TGI in [1], in assay [2], in assay [3], in assay [5], in assay [6] and in [7] was over 100 µM each time. Moreover, the TGI in [8], in [9] and in assay [10] was over 100 µM throughout.

For `CCOC(=O)/C(C(=O)c1ccc[nH]1)=C1/CCCN1C`, the TGI in assay [1], in assay [2], in [3], in assay [4], in assay [5] and in assay [6] was over 100 µM in each case. Further, the TGI in [7], in assay [8], in assay [9] and in assay [10] was over 100 µM in each case.

Take `O=[N+]([O-])C(/C=C(\Cl)[N+](=O)[O-])=C(N1CCOCC1)N1CCOCC1`: the TGI in assay [1] is 30.7 µM; in assay [2], 61 µM; in assay [3], over 100 µM; in assay [4], over 100 µM; in [5] it was 37.6 µM; in [6] it was over 100 µM. The TGI in assay [7] was over 100 µM; in assay [8], over 100 µM; in assay [9] it was 52.7 µM; in assay [10] it was 46.7 µM.

The record behind these values is PubChem BioAssay (NCI).
